From US10702487B2, “Pharmaceutical composition for prevention of diet induced obesity” (FRIMLINE PRIVATE LIMITED, priority 2017, dated 2020)

Assays:
Format in all cases: in vivo, Male Wistar Rats
[1] = system: High fat diet induced obesity model in rat; experiment: High fat diet induced obesity model in rat: analysis of liver homogenates; conditions: liver homogenate, HFD-fed rats, 12 weeks, p.o.; for Total Cholesterol / Triglyceride: mean; for Total Cholesterol % Decrease / Triglyceride % Decrease: versus disease control
Procedure: (§1) Screening anti-obesity effect of synergistic combination or composition/formulation comprising OEA and other natural ingredients using High fat diet induced obesity model in rat. […] To maintain appropriate conditions, temperature and relative humidity were recorded three times daily. During complete experiment, animals were supplied with the standard certified rat pellet feed (manufactured by VRK Nutritional Solutions, Pune) and drinking water treated by the reverse osmosis ad libitum. […] In order to evaluate the anti-obesity effect, forty-eight (48) male rats were screened and divided into eight groups. For a comparative analysis, the groups were divided as follows: normal control, disease control, treatment groups with individual component, reference standard drug and test composition/formulation of the present invention. […] The animals under consideration were examined for a study period of 12 weeks. Animals in group (G1) were given normal pellet diet, wherein the other groups were on high fat diet. After completion of study for 12 weeks, each group was analyzed in terms of the body weight and other evaluating parameters such as serum biochemistry (triglyceride, total cholesterol and low density lipoprotein cholesterol (LDL), analysis of liver homogenates and histopathology of liver. Obesity is essentially due to an excessive accumulation of the fatty tissues which leads to many diseases, not limited to insulin resistance, diabetes, fatty liver disease, coronary artery disease, hypertension and polycystic ovary syndrome. In obese conditions, the level of total cholesterol, triglyceride and LDL-cholesterol reaches beyond the normal ranges in human beings. Similarly, high fat diet model in rat is universally accepted model to test the efficacy of the drug for the treatment of obesity. In the above experimental procedure, obesity was induced by administration of a high fat diet (HFD) for the period of 12 weeks. For comparison, the normal control group animals were given a normal pellet diet, whereas the remaining groups were fed with the HFD. As a routine experiment, all animals' body weights were observed on weekly basis. Further, various serum biochemistry parameters such as Triglyceride, total cholesterol and LDL-cholesterol were analyzed at the end of the 12-week treatment period. In this regard, at the end of study period, all animals were euthanized and the liver was isolated. The liver homogenate of each individual animal was prepared and subjected for determination of the level of total cholesterol and Triglyceride. Further, part of the liver was used for histopathological investigation purpose.

[2] = system: High fat diet induced obesity model in rat; experiment: High fat diet induced obesity model in rat: body weight; conditions: HFD-fed rats, end of 12 weeks, p.o., mean; for % increase in body weight: in comparison to normal control group; for Body weight: OEA 41, L-Valine 2, Pantethine 31, Orlistat 10 mg/kg
Procedure: as §1, with “purpose. The primary observation during the experiment was monitoring the body weight of animals. Though the animals were tested weekly for the change in the body weight, an average body weight was measured at the end of 12 weeks, and is tabulated in the Table 2.” for “purpose.”

[3] = system: High fat diet induced obesity model in rat; experiment: High fat diet induced obesity model in rat: serum biochemistry; conditions: HFD-fed rats, 12 weeks, p.o.; for LDL / Total Cholesterol / Triglyceride: mean; for LDL % Decrease / Total Cholesterol % Decrease / Triglyceride % Decrease: versus disease control
Procedure: as §1

SMILES | Total Cholesterol [1] | Triglyceride [1] | Total Cholesterol % Decrease [1] | Triglyceride % Decrease [1] | % increase in body weight [2] | Body weight [2] | LDL [3] | Total Cholesterol [3] | Triglyceride [3] | LDL % Decrease [3] | Total Cholesterol % Decrease [3] | Triglyceride % Decrease [3]
CCCCCCCC/C=C\CCCCCCCC(=O)NCCO [OEA, Oleoylethanolamide] | 74.12 mg/dL | 59.98 mg/dL | 17.87% | 27.74% | 12.32% | 310.00 gm | 35.54 mg/dL | 105.54 mg/dL | 100.05 mg/dL | 38.70% | 28.32% | 18.51%
CCCCCCCCCCC[C@@H](C[C@@H]1OC(=O)[C@H]1CCCCCC)OC(=O)[C@H](CC(C)C)NC=O [Orlistat] | 60.33 mg/dL | 44.82 mg/dL | 33.15% | 46.00% | 7.97% | 298.00 gm | 25.74 mg/dL | 84.27 mg/dL | 77.62 mg/dL | 55.60% | 42.77% | 36.78%
CC(C)[C@H](N)C(=O)O [L-Valine] | 85.23 mg/dL | 80.02 mg/dL | 5.56% | 3.59% | 22.71% | 338.67 gm | 55.45 mg/dL | 140.00 mg/dL | 115.23 mg/dL | 4.35% | 4.92% | 6.15%
